Measurements from patent publication US10653698B2, “Methods of improving myocardial performance in Fontan patients using udenafil compositions” (priority 2014, dated 2020).

Experiments:
clinical = conditions: human, in vivo
Experimental: The population PK analysis was performed using a non-linear mixed effects modeling approach. This approach estimates the typical value of parameters and their variances. It was assumed subjects were at steady state (SS): at a time (t) after dose (D) given at time tD after repeated administration of dose D given at interval τ (t≥tD) as PK samples/udenafil concentrations were taken on study day 6.
As only the drug administration at Day 6 was supplied, it is expected that the subjects have taken the drug at regular intervals at home; due to this a steady state flag will be tested to account for the doses which are not available. As stated, it is assumed steady state has been reached by Day 6, as previous studies of udenafil have stated that during multiple dosing, steady state is reached in 5 days, with apparently little additional accumulation occurring after dosing for 7 days. If there were missed doses during the study period prior to the PK sampling, this can affect the ability to determine whether steady state could be assumed or not for the PK profile. If two or more additional drug administration dates and times were available prior to the visit where the PK samples were taken, then a much better dosing profile could be used for analysis.
One- and two-compartment models were explored (based on literature and available data). The equation for the Input model for the drug described oral absorption. For the one-compartment model, the following equation may apply to the model:
The robustness of the final model was assessed in PDxPOP® 5 by bootstrap re-sampling (n=1000). Values obtained with the bootstrap (based on all runs with successful minimization) were compared to the parameter estimates from the final model. To evaluate the accuracy of the model predictions, normalized prediction distribution errors (NPDE) was performed.
One- and two-compartment models with oral absorption input were evaluated using initial estimates obtained from the literature as described above, and were explored to determine the potential structure of the model. The models were evaluated during the model building process by using objective function value, level of statistical significance, goodness of fit plots, and standard error.
The only covariate available for analysis was current body weight. Weight was tested as a fixed effect on typical values for clearance and volume of distribution (e.g., weight has a “fixed effect” on clearance). Median weight in the dataset was 65.3 kg. […]
During the model building process, a number of residual error models were evaluated. […]
Bootstrap re-sampling was undertaken to compare the parameter estimates from the final model with those determined following 1000 bootstrap runs. […]

ED patients = conditions: 50 mg or 75 mg once daily for 12 wk; cited from earlier work
[1] = test system: adolescents with single ventricle physiology after Fontan palliation; assay: Exercise testing (peak VO2 at maximum effort, VO2 at anaerobic threshold); type: in vivo, human; conditions: for Peak VO2 at Anaerobic Threshold, Baseline measurement / Peak VO2 at Maximum Effort, Baseline measurement: day 1; for Peak VO2 at Anaerobic Threshold, Follow-up measurement / Peak VO2 at Maximum Effort, Follow-up measurement: post-medication, day 5
Excerpt: Exercise testing can include assessment of VO2 values during maximal effort or at anaerobic threshold. VO2 max, or maximal oxygen consumption, refers to the maximum amount of oxygen that an individual can utilize during intense exercise. This measurement is generally considered a reliable indicator of cardiovascular fitness and aerobic endurance. Theoretically, the more oxygen a person can use during high level exercise, the more energy that person can produce. This test is the gold standard for cardiorespiratory fitness because muscles need oxygen for prolonged (aerobic) exercise; blood carries oxygen to the muscles and the heart must pump adequate amounts of blood to meet the demands of aerobic exercise. VO2 is often measured by putting a mask on a subject, and measuring the volume and gas concentrations of inhaled and expired air. This measurement is often used in both clinical settings and research and is considered the most accurate. Testing commonly involves either exercising on a treadmill or riding a bike at increasing intensity until exhaustion, and is designed to provide readings at a maximal effort of the subject and/or at the subject's anaerobic threshold. The purpose of this example was to evaluate the efficacy of the treatment protocol described in Example 1 using various exercise testing parameters. The primary outcome of this arm of the study was maximal VO2 as determined by exercise testing. Table 14 summarizes results for the key outcome from the exercise testing—peak VO2 (limited to the subjects who achieved maximum effort) by treatment group. Out of the 36 subjects enrolled in the trial, 33 reached max effort in the exercise testing at each of the time points, and 31 subjects at both time points. The first two lines present data for baseline and follow-up measurements, while the third line presents differences between the two measurements (change scores, the outcome for this aim). […] An additional outcome, VO2 at anaerobic threshold, was also measured. Similar analyses were performed for this outcome. Overall results are similar to those for maximal VO2.

Compound: CCCOc1ccc(S(=O)(=O)NCCC2CCCN2C)cc1-c1nc2c(CCC)nn(C)c2c(=O)[nH]1 (centres unmarked) [udenafil]
- Vd/F (clinical): 74 L
- apparent clearance (CL/F/70 kg) (clinical): 36 L/h
- inter-compartmental clearance (Q/F) (clinical): 21.1 L/h
- peripheral volume of distribution (V3/F) (clinical): 181 L
- erectile function (ED patients): significantly improved
- Peak VO2 at Anaerobic Threshold, Difference, FU − BL ([1]; 37.5 mg daily): -0.5 ± 4.1 mL/min/kg
- Peak VO2 at Maximum Effort, Difference, FU − BL ([1]; 37.5 mg daily): -0.8 ± 1.7 mL/min/kg
- Peak VO2 at Anaerobic Threshold, Baseline measurement ([1]; 37.5 mg daily): 17.2 ± 5.0 mL/min/kg
- Peak VO2 at Maximum Effort, Baseline measurement ([1]; 37.5 mg daily): 24.6 ± 6.9 mL/min/kg
- Peak VO2 at Anaerobic Threshold, Follow-up measurement ([1]; 37.5 mg daily): 16.3 ± 2.0 mL/min/kg
- Peak VO2 at Maximum Effort, Follow-up measurement ([1]; 37.5 mg daily): 24.7 ± 6.7 mL/min/kg
- Peak VO2 at Anaerobic Threshold, Difference, FU − BL ([1]; 37.5 mg twice daily): 0.1 ± 1.0 mL/min/kg
- Peak VO2 at Maximum Effort, Difference, FU − BL ([1]; 37.5 mg twice daily): -1.6 ± 5.1 mL/min/kg
- Peak VO2 at Anaerobic Threshold, Baseline measurement ([1]; 37.5 mg twice daily): 18.0 ± 3.0 mL/min/kg
- Peak VO2 at Maximum Effort, Baseline measurement ([1]; 37.5 mg twice daily): 30.4 ± 6.2 mL/min/kg
- Peak VO2 at Anaerobic Threshold, Follow-up measurement ([1]; 37.5 mg twice daily): 18.1 ± 3.0 mL/min/kg
- Peak VO2 at Maximum Effort, Follow-up measurement ([1]; 37.5 mg twice daily): 28.8 ± 8.1 mL/min/kg
- Peak VO2 at Anaerobic Threshold, Difference, FU − BL ([1]; 87.5 mg daily): -1.1 ± 1.9 mL/min/kg
- Peak VO2 at Maximum Effort, Difference, FU − BL ([1]; 87.5 mg daily): -1.4 ± 2.5 mL/min/kg
- Peak VO2 at Anaerobic Threshold, Baseline measurement ([1]; 87.5 mg daily): 17.6 ± 5.3 mL/min/kg
- Peak VO2 at Maximum Effort, Baseline measurement ([1]; 87.5 mg daily): 28.4 ± 6.2 mL/min/kg
- Peak VO2 at Anaerobic Threshold, Follow-up measurement ([1]; 87.5 mg daily): 16.5 ± 4.8 mL/min/kg
- Peak VO2 at Maximum Effort, Follow-up measurement ([1]; 87.5 mg daily): 27.1 ± 5.0 mL/min/kg
- Peak VO2 at Anaerobic Threshold, Difference, FU − BL ([1]; 87.5 mg twice daily): -1.7 ± 2.1 mL/min/kg
- Peak VO2 at Maximum Effort, Difference, FU − BL ([1]; 87.5 mg twice daily): 0.2 ± 5.0 mL/min/kg
- Peak VO2 at Anaerobic Threshold, Baseline measurement ([1]; 87.5 mg twice daily): 18.3 ± 4.6 mL/min/kg
- Peak VO2 at Maximum Effort, Baseline measurement ([1]; 87.5 mg twice daily): 28.0 ± 5.2 mL/min/kg
- Peak VO2 at Anaerobic Threshold, Follow-up measurement ([1]; 87.5 mg twice daily): 16.5 ± 5.2 mL/min/kg
- Peak VO2 at Maximum Effort, Follow-up measurement ([1]; 87.5 mg twice daily): 28.2 ± 6.0 mL/min/kg
- Peak VO2 at Anaerobic Threshold, Difference, FU − BL ([1]; 125 mg daily): 1.2 ± 1.9 mL/min/kg
- Peak VO2 at Maximum Effort, Difference, FU − BL ([1]; 125 mg daily): 0.9 ± 2.6 mL/min/kg
- Peak VO2 at Anaerobic Threshold, Baseline measurement ([1]; 125 mg daily): 18.8 ± 1.8 mL/min/kg
- Peak VO2 at Maximum Effort, Baseline measurement ([1]; 125 mg daily): 28.6 ± 3.0 mL/min/kg
- Peak VO2 at Anaerobic Threshold, Follow-up measurement ([1]; 125 mg daily): 20.0 ± 3.2 mL/min/kg
- Peak VO2 at Maximum Effort, Follow-up measurement ([1]; 125 mg daily): 28.6 ± 3.8 mL/min/kg
